Source: the NIST ThermoML archive (doi:10.1021/je5008372)

Experiments:
[1] = mn = molality of the nth substance listed, in mol/kg; settings: 86.8 kPa, Liquid; for viscosity: Capillary tube (Ostwald / Ubbelohde) method; for speed of sound: Sing-around technique in a fixed-path interferometer; for mass density: Vibrating tube method
[2] = refractive index (Na D-line) (dimensionless); mn = molality of the nth substance listed, in mol/kg; settings: 86.8 kPa, Liquid, Standard Abbe refractometry
[3] = 86.8 kPa, Liquid; for viscosity: Capillary tube (Ostwald / Ubbelohde) method; for speed of sound: Sing-around technique in a fixed-path interferometer; for mass density: Vibrating tube method
[4] = refractive index (Na D-line) (dimensionless); settings: 86.8 kPa, Liquid, Standard Abbe refractometry

CCCCn1cc[n+](C)c1.[Br-] [1-butyl-3-methylimidazolium bromide] + CC#N
Settings	mass density, [1] [kg/m3]	refractive index, [2]	speed of sound, [1] [m/s]	viscosity, [1] [mPa·s]
288.15 K, m1 = 0.1046	796.218	1.3492	1323.5	0.4
288.15 K, m1 = 0.2021	803.662	1.3528	1327.1	0.421
288.15 K, m1 = 0.2996	810.75	1.3557	1330.3	0.44
298.15 K, m1 = 0.1046	785.312	1.3449	1283.2	0.363
298.15 K, m1 = 0.2021	792.989	1.3479	1287.1	0.38
298.15 K, m1 = 0.2996	800.167	1.3509	1290.3	0.398
308.15 K, m1 = 0.1046	774.491	1.3402	1243.2	0.331
308.15 K, m1 = 0.2021	782.263	1.3429	1247.2	0.346
308.15 K, m1 = 0.2996	789.528	1.3462	1250.6	0.361
318.15 K, m1 = 0.1046	763.59	1.3359	1203.1	0.304
318.15 K, m1 = 0.2021	771.427	1.3381	1207.3	0.318
318.15 K, m1 = 0.2996	778.947	1.3402	1210.8	0.331

CC#N [acetonitrile]
Settings	mass density, [3] [kg/m3]	refractive index, [4]	speed of sound, [3] [m/s]	viscosity, [3] [mPa·s]
288.15 K	787.395	1.3461	1319.1	0.388
298.15 K	776.615	1.3412	1278.6	0.344
308.15 K	765.81	1.3371	1238.3	0.313
318.15 K	754.851	1.3327	1198.2	0.289
